Laboratory results from US20040063681A1, “Methods for using gold (III) complexes as anti-tumor and anti-HIV agents” (priority 2002, published 2004).

Tests used:
[1] = test system: Human Oral Epidermoid Carcinoma (multi-drug resistance, KB-V-1); assay: MTT cytotoxicity, KB-V-1; assay type: cell-based; conditions: for IC50: MTT, growth inhibition, multi-drug resistant
Description: (§1) Human promyelocytic leukemia (HL-60), human hepatocellular carcinoma (HepG2), Human cervix epitheloid carcinoma cells (HeLa) and human oral epidermoid carcinoma cells (KB-3-1), were obtained from American Type Culture Collection (ATCC) (Rockville, Md.). The multi-drug-resistant variant KB-V1 cell line was obtained by stepwise selections for vinblastine resistance as described by Shen et al., J. Biol. Chem. 261:7762-7770 (1986)], and was generously provided by Dr Michael Gottesman (NIH, Bethesda, Md.). Human nasopharyngeal carcinoma cells (SUNE1 and its cisplatin resistance variant, CNE1) were derived from poorly differentiated NPC in Chinese patients as described by Gu et al., Chin. J. Cancer 2:270-272 (1983), and were generously provided by Dr S. W. Tsao (The University of Hong Kong, Hong Kong, PRC). Cell culture flasks and 96 well microtitre plates were from Nalge Nunc hit. Culture medium, other medium constituents and phosphate buffered saline (PBS) were obtained from Gibco BRL (Rockville, Md.). Cell Proliferation Kit I (MTT) was purchased from Roche (Mannheim, Germany).
The anti-cancer activities of the gold(III) porphyrin complexes were evaluated toward some established human cancer cell lines: promyelocytic leukemia (HL-60), hepatocellular carcinoma (HepG2), cervix epitheloid carcinoma (HeLa), epidermoid carcinoma (KB-3-1) and its multi-drug resistant variant (KB-V1), nasopharyngeal carcinoma (SUNE1) and its cisplatin-resistant variant (CNE1).

[2] = Electrochemical measurements (cyclic voltammetry); assay type: physicochemical; conditions: for Couple I (first reduction couple) / Couple II (second reduction couple): cyclic voltammetry, 0.1 M nBu4NPF6, glassy carbon, vs Cp2Fe^+/0; for ΔE1o (E^0Y − E^0H), couple I / ΔE2^0 (E^0Y − E^0H), couple II: relative to Y=H (Complex 1a)
Method: Electrochemical measurements. Electrochemical measurements were performed at room temperature after purging with nitrogen using 0.1 M tetrabutylammonium hexafluorophosphate (TBAP)/acetonitrile as supporting electrolyte. The working electrode was a glassy carbon (Atomergic Chemetal V25, geometric area of 0.35 cm^2) electrode and the counter electrode was platinum gauze. A nonaqueous Ag/AgNO3 (0.1 M in acetonitrile) reference electrode was contained in a separate compartment connected to the test solution via fine sintered glass disks. The ferrocenium/ferrocene couple was used as the internal standard. The redox properties of the gold(III) porphyrin complexes in non-aqueous medium (CH2Cl2 with 0.1 M nBu4NPF6) have been studied by cyclic voltammetry with glassy carbon and platinum as the working and counter electrodes, respectively. […] The effect of para-substitution on the electrochemical potentials has been examined by Hammett correlation analysis.

[3] = test system: Human Hepatocellular Carcinoma (HepG2); assay: MTT cytotoxicity, HepG2; assay type: cell-based; conditions: growth inhibition
Description: as §1
(§2) The anti-cancer activities of the gold(III) porphyrin complexes were evaluated toward some established human cancer cell lines: promyelocytic leukemia (HL-60), hepatocellular carcinoma (HepG2), cervix epitheloid carcinoma (HeLa), epidermoid carcinoma (KB-3-1) and its multi-drug resistant variant (KB-V1), nasopharyngeal carcinoma (SUNE1) and its cisplatin-resistant variant (CNE1). The experiments were carried out by following the MTT procedure (see Mosmann et al., J. Immunol. Methods 65:55-63 (1983). The IC50 values of the gold(III) porphyrin complexes together with that of cisplatin, and KAuCl4 are provided in Table 4a; and the IC50 values of the gold(III) Schiff-base and bis(pyridyl)carboxamide complexes are shown in Table 4b. The cytotoxicity profiles of some selected gold(III) porphyrin complexes toward SUNE1 and its cisplatin-resistant variant CNE1 are also shown in FIG. 7.

[4] = test system: Human Nasopharyngeal Carcinoma (cisplatin resistance, CNE1); assay: MTT cytotoxicity, CNE1; assay type: cell-based; conditions: for IC50: MTT, growth inhibition, cisplatin resistant
Description: (§3) Human promyelocytic leukemia (HL-60), human hepatocellular carcinoma (HepG2), Human cervix epitheloid carcinoma cells (HeLa) and human oral epidermoid carcinoma cells (KB-3-1), were obtained from American Type Culture Collection (ATCC) (Rockville, Md.). […] Cell culture flasks and 96 well microtitre plates were from Nalge Nunc hit. Culture medium, other medium constituents and phosphate buffered saline (PBS) were obtained from Gibco BRL (Rockville, Md.). Cell Proliferation Kit I (MTT) was purchased from Roche (Mannheim, Germany).

[5] = test system: Human Promyelocytic Leukemia (HL-60); assay: MTT cytotoxicity, HL-60; assay type: cell-based; conditions: growth inhibition
Description: as §1, §2

[6] = test system: Human Nasopharyngeal Carcinoma (SUNE1); assay: MTT cytotoxicity, SUNE1; assay type: cell-based; conditions: for IC50: MTT, growth inhibition
Description: as §3

[7] = test system: Human Oral Epidermoid Carcinoma (KB-3-1); assay: MTT cytotoxicity, KB-3-1; assay type: cell-based; conditions: for IC50: MTT, growth inhibition
Description: as §3

[8] = test system: Human Cervix Epitheloid Carcinoma (HeLa); assay: MTT cytotoxicity, HeLa; assay type: cell-based; conditions: for IC50: MTT, growth inhibition
Description: as §3

[9] = test system: HeLa cells; assay: Flow cytometry annexin V/propidium iodide apoptosis assay; assay type: cell-based, human; conditions: after treatment (Complex 1a 6 and 15 h; straurosporine 15 h)
Description: Flow cytometry: The gold(III) porphyrin-induced apoptosis of the HeLa cell line has been further examined by flow cytometry. During the early phase of apoptosis, cells lose the asymmetry of their membrane phospholipids, although the integrity of the cell membrane is maintained. A negatively charged phospholipid, named phosphatidylserine (PS), which is located in the inner part of the plasma membrane, becomes exposed to the cell surface. A phospholipid-binding protein, annexin V (green emissive upon binding), with high affinity binds preferentially to PS. Apoptotic cells therefore can be stained by annexin V before the dying cell changes its morphology and hydrolyzes its DNA. On the other hand, both DNA and the PS would be exposed for necrotic cells. In this case, propidium iodide (PI, red emissive upon binding), can be used to stain selectively the naked DNA. Therefore, both apoptotic and necrotic cells can be discriminated after adding these two staining reagents. For apoptotic cells, only annexin V would stain; for necrotic cells, both annexin V and PI would stain.
For comparison, a control cell culture experiment was performed in the absence of Complex 1a and straurosporine. […] Throughout the flow cytometric experiment, <1% of necrotic cells were observed.

| SMILES | IC50 ratio [cisplatin/gold (III) porphyrin complexes] KB-V1 [1] | IC50 [1] | Couple I (first reduction couple) [2] | Couple II (second reduction couple) [2] | ΔE1o (E^0Y − E^0H), couple I [2] | ΔE2^0 (E^0Y − E^0H), couple II [2] | IC50 [3] | IC50 ratio [cisplatin/gold (III) porphyrin complexes] CNE1 [4] | IC50 [4] | IC50 [5] | IC50 ratio [cisplatin/gold (III) porphyrin complexes] SUNE1 [6] | IC50 [6] | IC50 ratio [cisplatin/gold (III) porphyrin complexes] KB-3-1 [7] | IC50 [7] | IC50 ratio [cisplatin/gold (III) porphyrin complexes] HeLa [8] | IC50 [8] | annexin V emission [9] |
| --- | --- | --- | --- | --- | --- | --- | --- | --- | --- | --- | --- | --- | --- | --- | --- | --- | --- |
| Brc1ccc(-c2c3nc(c(-c4ccc(Br)cc4)c4ccc([n-]4)c(-c4ccc(Br)cc4)c4nc(c(-c5ccc(Br)cc5)c5ccc2[n-]5)C=C4)C=C3)cc1.[Au+3].[Cl-] [Complex 1d] | 8.96 | 0.64 µM | −0.97 V | −1.45 V | +0.03 V | +0.03 V | 1.21 µM | 41.6 | 0.98 µM | 1.12 µM | 17.0 | 0.74 µM | 10.23 | 1.29 µM | 12.6 | 0.89 µM |  |
| Clc1ccc(-c2c3nc(c(-c4ccc(Cl)cc4)c4ccc([n-]4)c(-c4ccc(Cl)cc4)c4nc(c(-c5ccc(Cl)cc5)c5ccc2[n-]5)C=C4)C=C3)cc1.[Au+3].[Cl-] [Complex 1e] | 20.4 | 0.23 µM | −0.96 V | −1.44 V | +0.44 V | +0.44 V | 0.92 µM | 99.5 | 0.41 µM | 0.87 µM | 37.1 | 0.34 µM | 26.4 | 0.5 µM | 16.2 | 0.69 µM |  |
| CN[C@@H]1C[C@H]2O[C@@](C)([C@@H]1OC)n1c3ccccc3c3c4c(c5c6ccccc6n2c5c31)C(=O)NC4 [straurosporine, reference compound] |  |  |  |  |  |  |  |  |  |  |  |  |  |  |  |  | the magnitude of the annexin V emission was enhanced |
